Data on 47 compounds can be found in patent US20230382894A1, “CCR4 ANTAGONISTS” (CHEMOCENTRYX, INC., priority 2022, published 2023).

For one assay, the target named is T1, CCR4 (Homo sapiens, UniProt P51679).
T1 construct: CEM Cells Endogenous Express CCR4; endogenous in cells; host or cells: CEM cells
T1 sequence (P51679 1-360): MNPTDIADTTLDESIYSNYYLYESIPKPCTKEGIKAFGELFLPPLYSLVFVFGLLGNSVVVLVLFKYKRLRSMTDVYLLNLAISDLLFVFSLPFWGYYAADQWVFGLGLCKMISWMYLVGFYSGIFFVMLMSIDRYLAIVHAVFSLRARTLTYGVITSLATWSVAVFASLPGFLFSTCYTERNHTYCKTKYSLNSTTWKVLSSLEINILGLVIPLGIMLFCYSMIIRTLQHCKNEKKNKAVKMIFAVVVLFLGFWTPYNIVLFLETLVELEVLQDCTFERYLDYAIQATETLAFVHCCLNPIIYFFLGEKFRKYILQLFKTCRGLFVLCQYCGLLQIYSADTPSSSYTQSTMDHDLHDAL
Put plainly: CEM cell chemotaxis (migration) assay to CCL22 (MDC) in 100% Fetal Bovine Serum (FBS). The note with it: CEM cells in 100% FBS with 1% HEPEs; recombinant human CCL22 0.1 nM; 37° C. 60 minutes. In kind it is cell-based. The source says:
(§1) CEM Cells Endogenous Express CCR4
(§2) A chemotaxis assay can be used to determine the efficacy of potential receptor antagonists at blocking the migration mediated through chemokine receptors, such as CCR4. This assay is routinely performed using the ChemoTX® microchamber system with a 5 μm pore-sized polycarbonate membrane.
(§3) FBS: CEM Cells are collected by centrifugation at 400×g at room temperature, then suspended at 5 million/ml in 100% Fetal Bovine Serum (FBS) with 1% HEPEs. The compound being tested is serially diluted from a maximum final concentration of 10 μM (or an equivalent volume of its solvent (DMSO)) and is then added to the cell/buffer mixture. Separately, recombinant human CCL22 (MDC) at its EC50 concentration (0.1 nM) is placed in the lower wells of the ChemoTX® plate. The 5-μm (pore size) polycarbonate membrane was placed onto the plate, and 20 μL of the cell/compound mixture is transferred onto each well of the membrane. The plates are incubated at 37° C. for 60 minutes, after which the polycarbonate membranes are removed and 5 μl of the DNA-intercalating dye CyQUANT (Invitrogen, Carlsbad, CA) is added to the lower wells. The amount of fluorescence, corresponding to the number of migrated cells, is measured using a Spectrafluor Plus plate reader (TECAN, San Jose, CA).
Take `C[C@@H](Nc1nc(N2CCC(CO)(NC(=O)[C@H]3CCCN3)CC2)ncc1Cl)c1ccc(Cl)cc1Cl` [Example 1.003]: the IC50 is less than 100 nM.

`C[C@@H](Nc1nc(N2CC[C@H](NC(=O)[C@H]3CCN(C)C3)[C@@H](O)C2)ncc1Cl)c1ccc(Cl)cc1Cl` [Example 1.206]: the IC50 was less than 100 nM.

With `C[C@@H](Nc1nc(N2CCN(C(=O)[C@H]3CCCN3)CC2)ncc1C#N)c1ccc(Cl)cc1Cl` [Example 1.207], the IC50 lay in the range of 100 to 1000 nM.

As for `C[C@@H](Nc1nc(N2CCN(C(=O)[C@]3(C)CCCN3)CC2)ncc1Cl)c1ccc(Cl)cc1Cl` [Example 1.208], the IC50 was less than 100 nM.

Take `C[C@@H](Nc1nc(N2CCN(C(=O)C3CNC(=O)CN3)CC2)ncc1Cl)c1ccc(Cl)cc1Cl` (stereo partly drawn) [Example 1.209]: the IC50 lay in the range of 100 to 1000 nM.

For `C[C@@H](Nc1nc(N2CCN(C(=O)[C@@]3(C)CCCN3)CC2)ncc1Cl)c1ccc(Cl)cc1Cl` [Example 1.210], the IC50 was less than 100 nM.

As for `C[C@@H](Nc1nc(N2CCC(O[C@@H]3CCNC3)CC2)ncc1Cl)c1ccc(Cl)cc1Cl` [Example 1.211], the IC50 is less than 100 nM.

Regarding `C[C@@H](Nc1nc(N2CCN(C(=O)C3(N)COC3)CC2)ncc1Cl)c1ccc(Cl)cc1Cl` [Example 1.212], the IC50 was more than 1000 nM.

For `C[C@@H](Nc1nc(N2CCN(C(=O)[C@H](N)CO)CC2)ncc1Cl)c1ccc(Cl)cc1Cl` [Example 1.213], the IC50 lay in the range of 100 to 1000 nM.

With `CC(C)N1CCCC(C2CCN(c3ncc(Cl)c(N[C@H](C)c4ccc(Cl)cc4Cl)n3)CC2)C1` (stereo partly drawn) [Example 1.214], the IC50 was less than 100 nM.

For the compound `COC[C@@H](N)C(=O)N1CCN(c2ncc(Cl)c(N[C@H](C)c3ccc(Cl)cc3Cl)n2)CC1` [Example 1.215], the IC50 was 100 to 1000 nM.

With `C[C@@H](Nc1nc(N2CC[C@H](NC(=O)[C@H]3C[C@@H](O)CN3)[C@@H](O)C2)ncc1Cl)c1ccc(Cl)cc1Cl` [Example 1.216], the IC50 was 100 to 1000 nM.

Consider `C[C@@H](Nc1nc(N2CCN(C(=O)c3cn(C)cn3)CC2)ncc1Cl)c1ccc(Cl)cc1Cl` [Example 1.217], for which the IC50 was 100 to 1000 nM.

Consider `C[C@@H](Nc1nc(N2CC[C@H](NC(=O)[C@H]3CN(C)C(=O)N3)[C@@H](O)C2)ncc1Cl)c1ccc(Cl)cc1Cl` [Example 1.218], for which the IC50 was more than 1000 nM.

Regarding `C[C@@H](Nc1nc(N2CCN(C(=O)[C@H]3CCCN3CCC(F)(F)F)CC2)ncc1Cl)c1ccc(Cl)cc1Cl` [Example 1.219], the IC50 was 100 to 1000 nM.

`C[C@@H](Nc1nc(N2CCC([C@@H]3CCCN(CCC(=O)O)C3)CC2)ncc1Cl)c1ccc(Cl)cc1Cl` [Example 1.220]: the IC50 is less than 100 nM.

For `C[C@@H](Nc1nc(N2CCC([C@H]3CCCN(CCC(=O)O)C3)CC2)ncc1Cl)c1ccc(Cl)cc1Cl` [Example 1.221], the IC50 was less than 100 nM.

Take `C[C@@H](Nc1nc(N2CCN(C(=O)[C@H]3CNC(=O)N3)CC2)ncc1Cl)c1ccc(Cl)cc1Cl` [Example 1.222]: the IC50 is less than 100 nM.

Take `C[C@@H](Nc1nc(N2CCC(NC(=O)[C@H]3CN(C)C(=O)N3)CC2)ncc1Cl)c1ccc(Cl)cc1Cl` [Example 1.223]: the IC50 is more than 1000 nM.

Consider `C[C@@H](Nc1nc(N2CC[C@H](NC(=O)[C@H]3CCCN3C)[C@@H](O)C2)ncc1Cl)c1ccc(Cl)cc1Cl` [Example 1.224], for which the IC50 is less than 100 nM.

For `C[C@@H](Nc1nc(N2CCN(C(=O)[C@H]3CCC(C)(C)N3)CC2)ncc1Cl)c1ccc(Cl)cc1Cl` [Example 1.225], the IC50 was less than 100 nM.

In the case of `C[C@@H](Nc1nc(N2CCN(C(=O)[C@H]3CN(C)C(=O)N3)CC2)ncc1Cl)c1ccc(Cl)cc1Cl` [Example 1.227], the IC50 is less than 100 nM.

Turning to `C[C@@H](Nc1nc(N2CCC(C(=O)N[C@@H]3CCNC3=O)CC2)ncc1Cl)c1ccc(Cl)cc1Cl` [Example 1.228], the IC50 lay within 100 to 1000 nM.

Regarding `C[C@@H](Nc1nc(N2CCN(C(=O)[C@@H]3CNCC(=O)N3)CC2)ncc1Cl)c1ccc(Cl)cc1Cl` [Example 1.229], the IC50 was more than 1000 nM.

As for `C[C@@H](Nc1nc(N2CCC(O[C@H]3CCNC3)CC2)ncc1Cl)c1ccc(Cl)cc1Cl` [Example 1.230], the IC50 was less than 100 nM.

Take `C[C@@H](Nc1nc(N2CCN(C(=O)C3(C)CCN(C)C3)CC2)ncc1Cl)c1ccc(Cl)cc1Cl` (stereo partly drawn) [Example 1.231]: the IC50 was less than 100 nM.

As for `C[C@@H](Nc1nc(N2CCN(C(=O)[C@H]3CC(=O)N3)CC2)ncc1Cl)c1ccc(Cl)cc1Cl` [Example 1.232], the IC50 is 100 to 1000 nM.

As for `C[C@@H](Nc1nc(N2CCC(C(=O)N[C@H]3CCNC3=O)CC2)ncc1Cl)c1ccc(Cl)cc1Cl` [Example 1.233], the IC50 is more than 1000 nM.

As for `C[C@@H](Nc1nc(N2CCN(C(=O)C[C@H]3CCC(=O)N3)CC2)ncc1Cl)c1ccc(Cl)cc1Cl` [Example 1.234], the IC50 was 100 to 1000 nM.

For the compound `C[C@@H](Nc1nc(N2CCC(C(=O)NC[C@H]3CCC(=O)N3)CC2)ncc1Cl)c1ccc(Cl)cc1Cl` [Example 1.235], the IC50 is more than 1000 nM.

With `C[C@@H](Nc1nc(N2CCN(C(=O)[C@H]3CCN(C)C3)CC2)ncc1C(N)=O)c1ccc(Cl)cc1Cl` [Example 1.236], the IC50 was less than 100 nM.

For `CC(=O)N1CCC[C@@H]1C(=O)N1CCN(c2ncc(Cl)c(N[C@H](C)c3ccc(Cl)cc3Cl)n2)CC1` [Example 1.237], the IC50 is 100 to 1000 nM.

For `C[C@@H](Nc1nc(N2CCN(C(=O)[C@H]3CCCC(=O)N3)CC2)ncc1Cl)c1ccc(Cl)cc1Cl` [Example 1.238], the IC50 is less than 100 nM.

As to `C[C@@H](Nc1nc(N2CCN(C(=O)[C@H]3CCC(=O)N3C)CC2)ncc1Cl)c1ccc(Cl)cc1Cl` [Example 1.239], the IC50 was less than 100 nM.

`C[C@@H](Nc1nc(N2CCN(C(=O)C3CCCC(=O)N3)CC2)ncc1Cl)c1ccc(Cl)cc1Cl` (stereo partly drawn) [Example 1.240]: the IC50 is less than 100 nM.

For `C[C@@H](Nc1nc(N2CCC(OC3CCN(C)C3)CC2)ncc1Cl)c1ccc(Cl)cc1Cl` (stereo partly drawn) [Example 1.241], the IC50 was less than 100 nM.

In the case of `CO[C@H]1CN(c2ncc(Cl)c(N[C@H](C)c3ccc(Cl)cc3Cl)n2)CC[C@@H]1NC(=O)[C@H]1CCCN1` [Example 1.242], the IC50 is less than 100 nM.

Regarding `C[C@@H](Nc1nc(N2CCN(C(=O)[C@H]3CCN(C)C3)CC2)ncc1C#N)c1ccc(Cl)cc1Cl` [Example 1.243], the IC50 was less than 100 nM.

As to `C[C@@H](Nc1nc(N2CCN(C(=O)[C@@]3(C)CCC(=O)N3)CC2)ncc1Cl)c1ccc(Cl)cc1Cl` [Example 1.244], the IC50 was more than 1000 nM.

For the compound `C[C@@H](Nc1nc(N2CC[C@H](NC(=O)CCN(C)C)[C@@H](O)C2)ncc1Cl)c1ccc(Cl)cc1Cl` [Example 1.245], the IC50 is less than 100 nM.

For `C[C@@H](Nc1nc(N2CC[C@H](NC(=O)[C@@]3(C)CCCN3)[C@@H](O)C2)ncc1Cl)c1ccc(Cl)cc1Cl` [Example 1.246], the IC50 is 100 to 1000 nM.

Take `C[C@@H]1CC[C@H](C(=O)N2CCN(c3ncc(Cl)c(N[C@H](C)c4ccc(Cl)cc4Cl)n3)CC2)N1` [Example 1.247]: the IC50 was less than 100 nM.

`C[C@@H]1CC[C@H](C(=O)N[C@H]2CCN(c3ncc(Cl)c(N[C@H](C)c4ccc(Cl)cc4Cl)n3)C[C@@H]2O)N1` [Example 1.248]: the IC50 is less than 100 nM.

`C[C@H](Nc1nc(N2CCN(C(=O)[C@H]3CCC(=O)N3)CC2)ncc1Cl)c1ncc(Cl)cc1Cl` [Example 1.255]: the IC50 was less than 100 nM.

As for `Cc1nc(N2CCN(C(=O)[C@H]3CCC(=O)N3)CC2)nc(N[C@H](C)c2c(F)cc(Cl)cc2Cl)c1Cl` [Example 1.260], the IC50 is less than 100 nM.

On to `C[C@@H](Nc1nc(N2CCN(C(=O)[C@H]3CCC(=O)N3)CC2)nc(C(F)(F)F)c1Cl)c1ccc(Cl)cc1Cl` [Example 1.261], for which the IC50 is less than 100 nM.

The target in a further assay is T1, CCR4. Put plainly: CEM cell chemotaxis (migration) assay to CCL22 (MDC) in HBSS buffer with 0.1% BSA. In kind it is cell-based. The note with it: CEM cells in HBSS with 0.1% BSA; recombinant human CCL22 0.1 nM; 37° C. 60 minutes.
Description: as §1, §2
as §3, with “HBSS:” for “FBS:”, “Hanks' Balanced Salt Solution (HBSS) buffer” for “100% Fetal Bovine Serum (FBS)”, “0.1% BSA.” for “1% HEPEs.”
Turning to `C[C@@H](Nc1nc(N2CCC(CO)(NC(=O)[C@H]3CCCN3)CC2)ncc1Cl)c1ccc(Cl)cc1Cl` [Example 1.003], the IC50 is less than 100 nM.

As to `C[C@@H](Nc1nc(N2CCN(C(=O)[C@H]3CCC(=O)N3)CC2)ncc1Cl)c1c(F)cc(Cl)cc1Cl` [Example 1.250], the IC50 is less than 100 nM.
